Test results as given in paper PMC9319179, “Heterologous Expression and Characterization of Plant Wax Ester Producing Enzymes” (Metabolites, 2022).

Tests used:
Arabidopsis At5g55340 WS = target: T1, Arabidopsis At5g55340 WS (Arabidopsis thaliana, UniProt Q9FJ76); experiment: in vivo feeding of expressing yeast, wax esters by TLC and GC-MS; format: cell-based; details: S. cerevisiae H1246; 50 uM alcohol with fed fatty acid (13:0 preferred), 20 °C; acyl donor formed in vivo
T1 construct: gene AT5
T1 sequence (Q9FJ76 1-333): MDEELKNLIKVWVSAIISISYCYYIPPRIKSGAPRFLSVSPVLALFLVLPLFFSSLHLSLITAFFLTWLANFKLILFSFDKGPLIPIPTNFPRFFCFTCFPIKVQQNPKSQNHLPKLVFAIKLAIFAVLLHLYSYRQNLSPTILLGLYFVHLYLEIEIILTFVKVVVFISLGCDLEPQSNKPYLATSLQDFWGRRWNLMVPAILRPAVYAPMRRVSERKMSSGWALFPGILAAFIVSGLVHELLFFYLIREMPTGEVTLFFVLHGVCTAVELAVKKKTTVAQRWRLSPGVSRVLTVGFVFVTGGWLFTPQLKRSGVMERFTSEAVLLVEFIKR

[1] = target: T2, maize WS (NP_001147171.1) (Zea mays, UniProt B6SLT2); experiment: in vivo feeding of expressing yeast, ethyl/benzyl esters by GC-MS; format: cell-based; details: S. cerevisiae H1246; fed fatty acids (14:1 preferred acyl), 20 °C; acyl donor formed in vivo
T2 construct: full-length ORF, C-terminal His6 tag, yeast codon-optimized synthetic ORF, expressed in S. cerevisiae H1246
T2 sequence (B6SLT2 1-345): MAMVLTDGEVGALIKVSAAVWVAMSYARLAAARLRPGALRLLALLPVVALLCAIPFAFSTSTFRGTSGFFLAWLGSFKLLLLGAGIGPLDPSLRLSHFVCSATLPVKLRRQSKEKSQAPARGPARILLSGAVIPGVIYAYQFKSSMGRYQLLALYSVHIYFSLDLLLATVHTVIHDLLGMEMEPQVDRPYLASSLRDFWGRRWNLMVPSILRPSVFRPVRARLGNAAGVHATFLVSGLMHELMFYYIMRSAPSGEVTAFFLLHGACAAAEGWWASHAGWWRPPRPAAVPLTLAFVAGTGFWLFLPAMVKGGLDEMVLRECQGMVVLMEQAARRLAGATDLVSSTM

Row | SMILES | in vivo feeding of expressing yeast, wax esters by TLC and GC-MS (Arabidopsis At5g55340 WS) | in vivo feeding of expressing yeast, ethyl/benzyl esters by GC-MS [1]
1 | CCCCCCCCCCCCCO [C13:0, C13:0 fatty alcohol] | apparent optimum at 13-carbon chain length for both the fatty acid and fatty alcohol | 
2 | OCc1ccccc1 [benzyl alcohol] |  | ability to assemble esters with ethanol, benzyl alcohol, and phenylethyl alcohol
3 | CCO [ethanol] |  | ability to assemble esters with ethanol, benzyl alcohol, and phenylethyl alcohol
